Reference: PMC10936602, “BaiJ and BaiB are key enzymes in the chenodeoxycholic acid 7α-dehydroxylation pathway in the gut microbe Clostridium scindens ATCC 35704” (Gut Microbes, 2024)

Columns and labels:
[1] = target: T1, BaiB ([Clostridium] scindens, UniProt A0A494WIV0); assay: LC/HRMS substrate depletion and detection of CoA conjugate; format: biochemical; details: CoA ligation; CoA and ATP; HEPES pH 7.5, anoxic, 18 h
T1 construct: recombinant in E. coli BL21-CodonPlus(DE3)-RIPL, pET28b+ or modified pET28b+, His and/or Strep tag
T1 sequence (A0A494WIV0 1-507): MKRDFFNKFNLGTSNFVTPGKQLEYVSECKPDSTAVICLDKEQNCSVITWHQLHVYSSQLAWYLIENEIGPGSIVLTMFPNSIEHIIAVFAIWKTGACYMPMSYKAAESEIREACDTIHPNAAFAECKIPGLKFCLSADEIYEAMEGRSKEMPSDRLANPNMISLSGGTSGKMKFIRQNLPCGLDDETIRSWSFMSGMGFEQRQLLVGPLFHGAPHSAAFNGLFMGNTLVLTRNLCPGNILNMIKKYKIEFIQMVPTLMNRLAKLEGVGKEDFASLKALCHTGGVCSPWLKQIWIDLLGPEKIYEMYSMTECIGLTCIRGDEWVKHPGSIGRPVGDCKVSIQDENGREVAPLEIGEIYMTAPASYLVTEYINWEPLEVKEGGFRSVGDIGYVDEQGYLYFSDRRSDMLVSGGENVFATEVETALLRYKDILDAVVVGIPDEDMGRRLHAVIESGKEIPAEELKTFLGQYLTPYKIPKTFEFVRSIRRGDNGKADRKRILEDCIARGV

[2] = target: T2, BaiJ ([Clostridium] scindens, UniProt B0NCC6); assay: LC/HRMS product quantification, single enzyme; format: biochemical; details: reduction; NAD, NADP, NADH, NADPH, FMN, FAD, CoA, ATP, ADP 500 μM each; HEPES pH 7.5, 37 °C, anoxic
T2 construct: gene urdA; recombinant in E. coli BL21-CodonPlus(DE3)-RIPL, pET28b+ or modified pET28b+, His and/or Strep tag, FAD and FMN added before lysis
T2 sequence (B0NCC6 1-563): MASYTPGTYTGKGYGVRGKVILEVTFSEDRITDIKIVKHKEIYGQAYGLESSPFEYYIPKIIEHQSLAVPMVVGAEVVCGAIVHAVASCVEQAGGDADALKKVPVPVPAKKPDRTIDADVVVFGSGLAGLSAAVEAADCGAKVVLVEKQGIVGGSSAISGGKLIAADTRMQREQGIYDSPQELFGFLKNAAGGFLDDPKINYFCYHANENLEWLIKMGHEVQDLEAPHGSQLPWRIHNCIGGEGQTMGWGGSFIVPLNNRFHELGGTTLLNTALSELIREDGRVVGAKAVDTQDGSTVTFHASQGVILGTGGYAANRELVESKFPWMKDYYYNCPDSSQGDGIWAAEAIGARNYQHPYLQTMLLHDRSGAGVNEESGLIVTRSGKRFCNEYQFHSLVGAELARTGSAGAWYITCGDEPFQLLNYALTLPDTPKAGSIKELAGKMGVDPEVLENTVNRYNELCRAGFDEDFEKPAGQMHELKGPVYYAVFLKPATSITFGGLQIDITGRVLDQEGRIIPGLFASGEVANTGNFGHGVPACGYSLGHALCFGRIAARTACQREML

Row | Compound | LC/HRMS substrate depletion and detection of CoA conjugate [1] | LC/HRMS product quantification, single enzyme [2]
1 | C[C@H](CCC(=O)O)[C@H]1CC[C@H]2[C@@H]3[C@H](O)CC4=CC(=O)CC[C@]4(C)[C@H]3CC[C@]12C [3-oxo-Δ^4-CDCA] | the concentration of 3-oxo-Δ^4-CDCA decreased significantly in the reaction with BaiB | –
2 | C[C@H](CCC(=O)O)[C@H]1CC[C@H]2[C@@H]3CCC4=CC(=O)CC[C@]4(C)[C@H]3CC[C@]12C [3-oxo-Δ^4-LCA] | – | BaiJ reduces 3-oxo-Δ^4-LCA and forms 3-oxo-allo-LCA as the only reduced product
